Assay results as given in patent US20230381142A1, “ANTILEISHMANIAL COMPOUNDS, COMPOSITIONS AND USE THEREOF” (TRUSTEES OF BOSTON UNIVERSITY, priority 2022, published 2023).
Like-named read-outs stand apart in the source and are kept apart here.

Assays:
[1] = test system: L. donovani intracellular amastigotes in B10R cells; assay: UCSD L. donovani infection assay (Assay Conditions D); format: cell-based; settings: B10R cells; for L. donovani amastigotes EC75 (B10R cells): footnote d; for EC50: Leishmania donovani, values marked d, read-out: L. donovani amastigotes EC50 (B10R cells)
In short: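 Compounds, either single-point at 10 μM or 10-point 2-fold series (3 technical, 2 biological replicates), were incubated 72 h at 37° C. with B10R host cells co-seeded with day-7 stationary L. donovani promastigotes (20:1). DAPI-stained nuclei imaging yielded intracellular parasite EC50 and host-cell CC50.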

[2] = UCSD infection assay, host cell cytotoxicity (CC50); format: cell-based; settings: mouse, B10R host cells infected with L. donovani
Description: (§1) Assay Conditions D: B10R cells (CVCL_0155) were seeded at 300 cells/well, and L. donovani WT promastigotes in stationary phase (7th day after passage) were added at 6,000 parasites/well (ratio of 20 parasites/cell). Both cells and parasites were seeded in DMEM High-Glucose medium (Gibco, cat. no. 11995065) containing 5% Fetal Bovine Serum (Sigma-Aldrich, cat. no. F2442) and 1% Penicillin-Streptomycin (Gibco, cat. no. 15140122). Cells and parasites were incubated in the presence of the compounds for 72 h at 37° C. and 5% C02. Plates were then fixed with 4% formaldehyde solution for at least 1 h, then washed with 1×PBS and stained with 5 μg/mL DAPI. Plates were read using an ImageXpress microscope (Molecular Devices) and analyzed by MetaXpress software (Molecular Devices) using a custom module optimized for this assay. […] Compounds were tested in a 10-point 2-fold serial dilution in 3 technical replicates, and 2 biological replicates. After 72 h, plates were fixed and stained with DAPI as described above. Images were acquired on an ImageXpress microscope, and analyzed using the MetaXpress custom module.
as §1, with “Compounds were obtained as 0.2 μmoles of dried film for primary single point screening. Each compound was diluted in DMSO to 10 μM final testing concentration. These compounds were tested in 2 biological replicates. The compounds were pre-spotted onto 384-well assay plates in single concentration.” for “Assay Conditions D:”, “CO2.” for “C02.”, “module. The DRCs were plotted, half-effective concentration (EC50) and half-cytotoxic concentration (CC50) were calculated using GraphPad Prism Software, version 6.05 (GraphPad Software, San Diego, CA).” for “module.”

[3] = GSK inMac assay, host cell toxicity readout (LD MAC); format: cell-based, human; settings: human
In short: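 MAC EC50 reflects THP-1 host cell counts, measured within GSK's inMac L. donovani infection assay that also scores intracellular amastigotes and infected-cell percentage.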

[4] = test system: L. donovani intracellular amastigotes infecting THP-1 macrophages; assay: GSK intramacrophage L. donovani assay (LD AMMAC, inMac; Assay Conditions C); format: cell-based; settings: Leishmania donovani
In short: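 EC50 values come from counting amastigotes per infected THP-1 macrophage (AMMAC). Parallel read-outs give percentage of infected cells per well (INFCELL) and a macrophage-number toxicity EC50 (MAC).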

[5] = footnote c, read-out: THP-1 Host Cell CC50
[6] = THP-1 cells, values marked c, read-out: L. donovani amastigotes EC50 (THP-1 cells)
[7] = values marked c: THP-1 cells, read-out: L. donovani amastigotes EC50 (μM, THP-1 or B10R cells)

SMILES | L. donovani amastigotes EC75 (μM, B10R cells) [1] [µM] | CC50 at 72 h ([2]; host B10R cells) [µM] | further results
Cc1ccc(N2C(=O)c3[nH]nc(CC(C)C)c3C2c2ccc(Cl)cc2F)cn1 (centres unmarked) [BUCMD00627] | >10 | 10 | –
Cc1ccc(N2C(=O)c3[nH]nc(CC(C)C)c3C2c2ccccc2C)cn1 (centres unmarked) [BUCMD00628] | 3.2 | 15.8 | –
Cc1ccc(N2C(=O)c3[nH]nc(CC(C)C)c3C2c2ccccc2Cl)cn1 (centres unmarked) [BUCMD00640] | 3.4 | 12.6 | –
Cc1ccc(N2C(=O)c3[nH]nc(CC(C)C)c3C2c2ccc(Br)cc2F)cn1 (centres unmarked) [BUCMD00641] | >10 | 12.6 | –
Cc1ccc(N2C(=O)c3[nH]nc(CC(C)C)c3C2c2ccc(F)cc2Cl)cn1 (centres unmarked) [BUCMD00642] | 1.3 | 10 | –
COc1ccc(N2C(=O)c3[nH]nc(CC(C)C)c3C2c2ccccc2C)nc1 (centres unmarked) [BUCMD00645] | >10 | 20 | –
COc1ccc(N2C(=O)c3[nH]nc(CC(C)C)c3C2c2ccc(F)cc2C)nc1 (centres unmarked) [BUCMD00646] | >10 | 12.6 | –
COc1ccc(N2C(=O)c3[nH]nc(CC(C)C)c3C2c2ccccc2Cl)nc1 (centres unmarked) [BUCMD00647] | >10 | 10 | –
COc1ccc(N2C(=O)c3[nH]nc(CC(C)C)c3C2c2ccc(Br)cc2F)nc1 (centres unmarked) [BUCMD00648] | >10 | 3.98 | –
CC(C)Cc1n[nH]c2c1C(c1ccccc1C(F)(F)F)N(c1cncc(F)c1)C2=O (centres unmarked) [BUCMD00699] | 1.4 | 5.01 | –
CC(C)Cc1n[nH]c2c1C(c1ccccc1F)N(c1cncc(F)c1)C2=O (centres unmarked) [BUCMD00700] | 1.3 | 10 | –
CC(C)Cc1n[nH]c2c1C(c1ccc(F)cc1Cl)N(c1ccc(C(=O)N3CCCC3)cc1)C2=O (centres unmarked) [BUCMD00711] | >10 | 5.01 | –
CC(C)Cc1n[nH]c2c1C(c1ccc(Cl)cc1Cl)N(c1ccc(C(=O)N3CCCC3)cc1)C2=O (centres unmarked) [BUCMD00712] | >10 | 1.58 | –
Cc1ccccc1C1c2c(CC(C)C)n[nH]c2C(=O)N1c1ccc(C(=O)N2CCCC2)cc1 (centres unmarked) [BUCMD00713] | >10 | 10 | –
CC(C)Cc1n[nH]c2c1C(c1ccc(F)cc1F)N(c1ccc(C(=O)N3CCCC3)cc1)C2=O (centres unmarked) [BUCMD00714] | >10 | 10 | –
Cc1cc(F)ccc1C1c2c(CC(C)C)n[nH]c2C(=O)N1c1ccc(N2CCN(C)CC2)nc1 (centres unmarked) [BUCMD00717] | 1.0 | 7.94 | –
CC(C)Cc1n[nH]c2c1C(c1ccc(F)cc1Cl)N(c1ccc(N3CCN(C)CC3)nc1)C2=O (centres unmarked) [BUCMD00718] | 1.0 | 6.31 | –
CC(C)Cc1n[nH]c2c1C(c1ccc(Cl)cc1Cl)N(c1ccc(N3CCN(C)CC3)nc1)C2=O (centres unmarked) [BUCMD00719] | >10 | 2 | –
CC(C)Cc1n[nH]c2c1C(c1ccc(F)cc1F)N(c1ccc(N3CCN(C)CC3)nc1)C2=O (centres unmarked) [BUCMD00722] | >10 | 7.94 | –

SMILES | L. donovani amastigotes EC75 (μM, B10R cells) [1] [µM] | CC50 at 72 h ([2]; host B10R cells) [µM] | further results
CC(C)Cc1n[nH]c2c1C(c1ccccc1C(F)(F)F)N(c1ccc(N3CCN(C)CC3)nc1)C2=O (centres unmarked) [BUCMD00723] | 10.0 | 7.94 | –
CC(C)Cc1n[nH]c2c1C(c1ccccc1F)N(c1ccc(N3CCN(C)CC3)nc1)C2=O (centres unmarked) [BUCMD00724] | >10 | 6.31 | –
CC(C)Cc1n[nH]c2c1C(c1ccc(F)c(F)c1)N(c1ccc(N3CCN(C)CC3)nc1)C2=O (centres unmarked) [BUCMD00725] | >10 | 7.94 | –
COc1ncc(N2C(=O)c3[nH]nc(CC(C)C)c3C2c2ccc(F)cc2Cl)cc1F (centres unmarked) [BUCMD00730] | – | – | L. donovani amastigotes EC75 (B10R cells) [1]: 0.6 µM; CC50 at 72 h ([2]; footnote d): 10 µM
C#CCCCCn1nc(CC(C)C)c2c1C(=O)N(c1ccc(OC)cc1)C2c1ccc(F)cc1 (centres unmarked) [BUCMD00741] | >10 | 10 | –
COc1ccc(N2C(=O)c3[nH]nc(CC(C)C)c3[C@@H]2c2cccc(C(F)(F)F)c2)cn1 [BUCMD00805] | – | – | CC50 [3, 5]: 25.1 µM; EC50 [4, 6]: 5 µM; L. donovani amastigotes EC75 (B10R cells) [1]: 1.6 µM; CC50 at 72 h ([2]; footnote d): 6.31 µM
CC(C)Cc1n[nH]c2c1C(c1ccccc1Cl)N(c1ccc(N(C)C)cc1)C2=O (centres unmarked) [CMLD010920] | – | – | CC50 [3, 5]: 7.3 µM; L. donovani amastigotes EC75 (B10R cells) [1]: 0.3 µM; EC50 [1]: 300 nM; CC50 at 72 h ([2]; footnote d): 6.31 µM
COc1ccc(N2C(=O)c3[nH]nc(CC(C)C)c3[C@H]2c2ccccc2Br)cn1 [CMLD010977] | 1.0 | 15.8 | CC50 ([3]; host THP-1 cells): 25.1 µM; EC50 [4, 7]: 2 µM
CC(C)Cc1n[nH]c2c1C(c1ccc(F)cc1)N(c1ccc(N(C)C)cc1)C2=O (centres unmarked) [CMLD011039] | – | – | CC50 [3, 5]: 39.8 µM; EC50 [4, 6]: 1 µM; L. donovani amastigotes EC75 (B10R cells) [1]: 0.3 µM; CC50 at 72 h ([2]; footnote d): 6.31 µM
CC(C)Cc1n[nH]c2c1C(c1ccc(F)cc1)N(c1ccc3c(c1)OCCO3)C2=O (centres unmarked) [CMLD011101] | – | – | CC50 [3, 5]: 25.1 µM; EC50 [4, 6]: 3.2 µM; L. donovani amastigotes EC75 (B10R cells) [1]: 1.2 µM; CC50 at 72 h ([2]; footnote d): 15.8 µM
COc1ccc(N2C(=O)c3[nH]nc(CC(C)C)c3C2c2ccc(C)s2)cc1 (centres unmarked) [CMLD011123] | 2.5 | 15.8 | CC50 ([3]; host THP-1 cells): 20 µM; EC50 [4, 7]: 5 µM
CC(C)Cc1n[nH]c2c1C(c1cccc(C(F)(F)F)c1)N(c1ccc3c(c1)OCO3)C2=O (centres unmarked) [CMLD011139] | >10 | 12.6 | CC50 ([3]; host THP-1 cells): 20 µM; EC50 [4, 7]: 3.2 µM
CC(C)Cc1n[nH]c2c1C(c1ccccc1Br)N(c1ccc3c(c1)OCC(=O)N3)C2=O (centres unmarked) [CMLD011497] | 0.9 | 6.31 | CC50 ([3]; host THP-1 cells): 20 µM; EC50 [4, 7]: 2 µM
COc1ccccc1C1c2c(CC(C)C)n[nH]c2C(=O)N1c1ccc(Br)cc1 (centres unmarked) [CMLD011549] | – | – | CC50 [3, 5]: 1.1 µM; L. donovani amastigotes EC75 (B10R cells) [1]: 0.3 µM; EC50 [1]: 200 nM; CC50 at 72 h ([2]; footnote d): 1 µM
CC(C)Cc1n[nH]c2c1C(c1ccccc1Br)N(c1ccc(Br)cc1)C2=O (centres unmarked) [CMLD011551] | – | – | CC50 [3, 5]: 5 µM; L. donovani amastigotes EC75 (B10R cells) [1]: 0.5 µM; EC50 [1]: 400 nM; CC50 at 72 h ([2]; footnote d): 6.31 µM
CC(C)Cc1n[nH]c2c1C(c1c(Cl)cccc1Cl)N(c1ccc(N(C)C)cc1)C2=O (centres unmarked) [CMLD011553] | 3.0 | 5.01 | CC50 ([3]; host THP-1 cells): 20 µM; EC50 [4, 7]: 4 µM
COc1ccc(N2C(=O)c3[nH]nc(CC(C)C)c3C2c2ccccc2OC)cc1F (centres unmarked) [CMLD011566] | – | – | CC50 [3, 5]: 0.3 µM; L. donovani amastigotes EC75 (B10R cells) [1]: 0.4 µM; EC50 [1]: 400 nM; CC50 at 72 h ([2]; footnote d): 0.316 µM
COc1ccc(N2C(=O)c3[nH]nc(CC(C)C)c3C2c2ccccc2OC)cn1 (centres unmarked) [CMLD011567] | – | – | CC50 [3, 5]: > 20 µM; L. donovani amastigotes EC75 (B10R cells) [1]: 1.2 µM; EC50 [1]: 1100 nM; CC50 at 72 h ([2]; footnote d): 20 µM
COc1ccc(N2C(=O)c3[nH]nc(CC(C)C)c3C2c2ccccc2Br)cc1F (centres unmarked) [CMLD012217] | – | – | CC50 [3, 5]: 3 µM; L. donovani amastigotes EC75 (B10R cells) [1]: 0.5 µM; EC50 [1]: 400 nM; CC50 at 72 h ([2]; footnote d): 3.98 µM
